Measurements from patent US8906357B2, “Treatment of multiple sclerosis with masitinib” (AB Science, priority 2010, dated 2014).
Several values for one entry are separate records, joined by “and”; a condition that tells them apart may be missing. Equal entries are not always repeated. Entries after “also recorded” stand apart in the source; their conditions may differ. Where two headings read alike, the source gives them in different places.

How the values were obtained:
[1] = tested on: wild-type and juxtamembrane-mutated c-Kit receptors; conditions: results in cell cycle arrest and apoptosis of c-Kit dependent cell lines; cited from earlier work
[2] = tested on: patients with RRMS or rSPMS
Experimental: A multicenter, open-label, non-controlled, proof-of-concept clinical trial, designed to evaluate the efficacy and safety of oral masitinib administered at 3 or 6 mg/kg/day for 36 weeks in patients with RRMS or rSPMS.
Eligible patients should have had at least one active gadolinium lesion at any of the three MRI performed during an 8 week run-in period and an EDSS score within the range of 2.0 to 6.5 inclusive.

human cord blood MCs = conditions: cited from earlier work
[3] = tested on: patients with PPMS or rfSPMS;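 also: oral masitinib started at 3 or 6 mg/kg/day split twice daily, with up to two 1.5 mg/kg/day increases permitted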
Experimental: Patients were randomized to receive orally administered masitinib at an initial dose of 3 or 6 mg/kg/day b.i.d, with two dose increases of 1.5 mg/kg/day permitted in the event of lack of activity and manageable toxicity. Masitinib and placebo were supplied as 100 or 200 mg tablets. The initial study had three arms but this was amended to close the 3 mg/kg/day bid arm after approximately 1 year.
MS evaluations were performed at screening, at week 0 (baseline), at month 1, 2, 3, 6, 9, 12, 18 and 24 or at the withdrawal visit. […] Masitinib tolerance was assessed by clinical and biological safety parameters.
Patients having SPMS with relapse in the 2 years before inclusion were excluded. No oral or parenteral concomitant corticosteroids were permitted for the duration of study, except in case of protocol-defined demyelinating event (methylprednisolone at 1 g/day for 3 days). No immunomodulating, immunosuppressing, chemotherapy and paracetamol concomitant administration were permitted for the duration of the study. Concomitant analgesic without anti-inflammatory action and oral narcotic analgesic were not allowed on the day of a study visit until all efficacy evaluations were completed. Concomitant physical therapy was allowed in patients already receiving such therapy at study entry. To manage rash, a mandatory concomitant treatment (cetirizine, 10 mg/day for 30 days) was combined with masitinib.
The latter is a multidimensional, MS-specific outcome measure, comprising of a timed 25-foot walk (T25FW) test measuring leg function and ambulation, a 9-hole peg test (9-HPT) measuring arm and hand function and a Paced Auditory Serial Addition Test 3 seconds (PASAT-3″) measuring cognitive function. The MSFC was calculated as described in the National Multiple Sclerosis Society MSFC administration and scoring manual by averaging the z-scores from each components of the MSFC.
Adverse events (AE) were described by duration, intensity, relation to masitinib and course of action. Intensities were graded either mild (signs and symptoms are present without functional repercussions), moderate (there are functional repercussions without putting the patient's health at risk), or severe (functional alterations or incapacity or definite risk for the patient health).

mouse EAE model of MS = assay: Mouse EAE model of MS (MOG-induced disease in C57BL/6 mice), daily clinical score; type: in vivo; conditions: days 26-35
Experimental: The ability and effect of masitinib in the inhibition of MC function in MS was explored using the EAE murine model. The myelin oligodendrocyte glycoprotein (MOG)-induced disease in C57BL/6 mice is considered to be a model for all progressive foinis of MS. C57BL/6 mice were immunized with 300 ng MOG35-55 peptide (an immunological target in the human disease) on days 0 (in complete Freund's adjuvant) and 7 (in incomplete Freund's adjuvant) and 250 ng pertussis was administered intravenously on days 0 and 2. Mice were scored daily by visual assessment of symptoms on a scale of 0-5 where 1 denotes a flaccid tail, 2 denotes hind limb weakness, 3 denotes hind limb paralysis, 4 denotes an inability to right from supine and 5 indicates death. Statistical analyzes of significance between mean clinical scores were performed using Bonferroni's Multiple Comparison Test-One way ANOVA or paired t tests. Statistical analyses were performed for the daily intervals between days 26-35. Five mice per experimental group were administrated the following treatment every day from the first day of immunization (day 0): • Vehicle (PBS) • Masitinib 25 mg/kg, 2 times per day, intraperitoneal injection • Masitinib 12.5 mg/kg, 2 times per day, intraperitoneal injection

[4] = during the treatment period (W0 to W36)

Question: For `Cc1ccc(NC(=O)c2ccc(CN3CCN(C)CC3)cc2)cc1Nc1nc(-c2cccnc2)cs1` [masitinib, 4-(4-methylpiperazin-1-ylmethyl)-N-[4-methyl-3-(4-pyridin-3ylthiazol-2-ylamino)phenyl]benzamide], which “inhibitory effect on c-Kit receptors” value [1] is on record?
Answer: Its value is “strong inhibitory effect”.

Question: What about the tolerability overall ([2]; 3 or 6 mg/kg/day oral) of the same compound?
Answer: The tolerability overall was “relatively well tolerated”.

Question: And the EDSS ([2]; 36-week study)?
Answer: The EDSS was “neither improvement nor progression”.

Question: And the “average number of T1 lesions” value ([2]; after 12 weeks of treatment (run-in period 5.35), 4 patients)?
Answer: Its value is 1.5 lesions.

Question: And the “average volume of T1 lesions” value ([2]; after 12 weeks of treatment (run-in period 777 mm^3))?
Answer: Its value is 54 mm^3.

Question: And the “average number of T1 lesions” value ([2]; after 20 weeks of treatment (run-in period 5.35), 4 patients)?
Answer: Its value is 0.25 lesions.

Question: What about the “average volume of T1 lesions” value ([2]; after 20 weeks of treatment (run-in period 777 mm^3)) of the same compound?
Answer: Its value is 40 mm^3.

Question: And the “T1 gadolinium-enhancing lesion number” value ([2]; all patients, at consecutive time points during the study)?
Answer: The value was “reduced to none”.

Question: What about the “patients in whom both number and volume of T1 lesions decreased” value ([2]; during masitinib treatment) of the same compound?
Answer: Its value is 3/4.

Question: What about the “average number of T1 lesions” value [2, 4] of the same compound?
Answer: The value was 1.0 lesion.

Question: And the “average volume of T1 lesions” value [2, 4]?
Answer: Its value is 99 mm^3.

Question: And the “number and volume of T2 hyperintense lesions and T1 hyperintense lesions” value ([2]; during treatment)?
Answer: The value was “remained globally stable”.

Question: What about the death ([2]; human, in vivo) of the same compound?
Answer: The death was “No death”.

Question: And the “total AEs reported during the treatment period” value ([2]; in two patients, all at doses of ≧6 mg/kg/day)?
Answer: Its value is 11.

Question: What about the “patients experiencing relapses during treatment” value ([2]; one patient out of four, three relapses) of the same compound?
Answer: The value was 25%.

Question: And the EDSS score maintained ([2]; patient in the study extension phase, to W84)?
Answer: The EDSS score maintained was 2.5.

Question: What about the “relapse-free duration of individual patients” value ([2]; three patients, respectively) of the same compound?
Answer: Its value is 7 months and 11.5 months and 25 months.

Question: And the FcER1-mediated degranulation (human cord blood MCs)?
Answer: The FcER1-mediated degranulation was “inhibition”.

Question: What about the “MSFC mean percentage change from baseline” value (“MSFC mean percentage change” below) ([3]; All (masitinib n = 24), M3, LOCF) of the same compound?
Answer: The value was 78%.

Question: And the “MSFC mean percentage change” value ([3]; All (masitinib n = 24), M3, LOCF, listed as Masitinib)?
Answer: Its value is 78 ± 284%.

Question: What about the “MSFC mean percentage change” value ([3]; All (masitinib n = 24), M6, LOCF) of the same compound?
Answer: The value was 156 ± 274%.

Question: What about the “MSFC mean percentage change” value ([3]; All (masitinib n = 24), M9, LOCF) of the same compound?
Answer: The value was 70 ± 267%.

Question: And the “MSFC mean percentage change” value ([3]; All (masitinib n = 24), M12, LOCF)?
Answer: The value was 103 ± 189%.

Question: And the “MSFC mean percentage change” value ([3]; All (masitinib n = 24), M18, LOCF)?
Answer: Its value is “+96%”.

Question: What about the “MSFC mean percentage change” value ([3]; All (masitinib n = 24), M18, LOCF, listed as Masitinib) of the same compound?
Answer: The value was 96 ± 191%.

Question: What about the “MSFC mean percentage change” value ([3]; PPMS (masitinib n = 9), M3, LOCF) of the same compound?
Answer: Its value is “+108%”.

Question: And the “MSFC mean percentage change” value ([3]; PPMS (masitinib n = 9), M3, LOCF, listed as Masitinib)?
Answer: The value was 108 ± 435%.

Question: What about the “MSFC mean percentage change” value ([3]; PPMS (masitinib n = 9), M6, LOCF) of the same compound?
Answer: The value was 202 ± 353%.

Question: What about the “MSFC mean percentage change” value ([3]; PPMS (masitinib n = 9), M9, LOCF) of the same compound?
Answer: The value was 56 ± 410%.

Question: What about the “MSFC mean percentage change” value ([3]; PPMS (masitinib n = 9), M12, LOCF) of the same compound?
Answer: The value was 134 ± 268%.

Question: What about the “MSFC mean percentage change” value ([3]; PPMS (masitinib n = 9), M18, LOCF) of the same compound?
Answer: The value was “+134%”.

Question: What about the “MSFC mean percentage change” value ([3]; PPMS (masitinib n = 9), M18, LOCF, listed as Masitinib) of the same compound?
Answer: The value was 134 ± 268%.

Question: And the EDSS score course ([3]; PPMS population)?
Answer: The EDSS score course was “stable”.

Question: And the “Mean 9-HPT raw score change” value ([3]; at month 18)?
Answer: Its value is -1.6 s.

Question: And the “Mean PASAT-3″ raw score change” value ([3]; at month 18)?
Answer: The value was “+6.0”.

Question: And the “Mean T25FW raw score change” value ([3]; at month 18)?
Answer: Its value is “+1.6 seconds”.

Question: And the death ([3]; during the study)?
Answer: Its death is “No death”.

Question: And the “MSQLI subscale SSS, mean percentage change from baseline” value ([3]; ex-post, n = 4)?
Answer: The value was −6.9 ± 29.0%.

Question: What about the “MSQLI subscale VIS, mean percentage change from baseline” value ([3]; ex-post, n = 4) of the same compound?
Answer: The value was 0 ± 0%.

Question: And the “MSQLI subscale SF-36, mean percentage change from baseline” value ([3]; ex-post, n = 5)?
Answer: The value was 12.7 ± 24.3%.

Question: What about the “MSQLI subscale PDQ, mean percentage change from baseline” value ([3]; ex-post, n = 6) of the same compound?
Answer: The value was 1.1 ± 11.7%.

Question: What about the “MSQLI subscale BoCS, mean percentage change from baseline” value ([3]; ex-post, n = 7) of the same compound?
Answer: The value was −3.1 ± 8.8%.

Question: And the “MSQLI subscale MSSS, mean percentage change from baseline” value ([3]; ex-post, n = 7)?
Answer: Its value is 6.2 ± 9.4%.

Question: And the “MSQLI subscale PES, mean percentage change from baseline” value ([3]; ex-post, n = 7)?
Answer: The value was −3.9 ± 12.2%.

Question: And the “MSQLI subscale BLCS, mean percentage change from baseline” value ([3]; ex-post, n = 8)?
Answer: Its value is 21.5 ± 72.4%.

Question: What about the “MSQLI subscale MFIS, mean percentage change from baseline” value ([3]; ex-post, n = 8) of the same compound?
Answer: Its value is −3.0 ± 14.9%.

Question: What about the “MSQLI subscale MHI, mean percentage change from baseline” value ([3]; ex-post, n = 9) of the same compound?
Answer: The value was 15.2 ± 25.99%.

Question: What about the “number of AEs reported by investigators” value ([3]; masitinib group n = 27) of the same compound?
Answer: The value was 100.

Question: And the “patients reporting AEs (adverse events)” value ([3]; masitinib group n = 27)?
Answer: Its value is 85%.

Question: What about the “patients reporting a serious, non-fatal AE” value ([3]; masitinib group n = 27) of the same compound?
Answer: Its value is 33%.

Question: What about the “patients reporting a severe AE suspected to be related to therapy” value ([3]; masitinib group n = 27) of the same compound?
Answer: Its value is 26%.

Question: And the “patients with an AE leading to masitinib discontinuation” value ([3]; masitinib group n = 27)?
Answer: Its value is 26%.

Question: And the “Asthenia, number of patients” value ([3]; masitinib n = 27)?
Answer: The value was 11.

Question: And the “Asthenia, percent of patients” value ([3]; masitinib n = 27)?
Answer: Its value is 41%.

Question: What about the “Diarrhea, number of patients” value ([3]; masitinib n = 27) of the same compound?
Answer: The value was 3.

Question: What about the “Diarrhea, percent of patients” value ([3]; masitinib n = 27) of the same compound?
Answer: The value was 11%.

Question: What about the “Nausea, number of patients” value ([3]; masitinib n = 27) of the same compound?
Answer: Its value is 7.

Question: And the “Nausea, percent of patients” value ([3]; masitinib n = 27)?
Answer: The value was 26%.

Question: What about the “Rash, number of patients” value ([3]; masitinib n = 27) of the same compound?
Answer: Its value is 3.

Question: And the “Rash, percent of patients” value ([3]; masitinib n = 27)?
Answer: Its value is 11%.

Question: What about the “Urinary Tract Infection, number of patients” value ([3]; masitinib n = 27) of the same compound?
Answer: Its value is 3.

Question: And the “Urinary Tract Infection, percent of patients” value ([3]; masitinib n = 27)?
Answer: Its value is 11%.

Question: And the “Weight Decreased, number of patients” value ([3]; masitinib n = 27)?
Answer: The value was 3.

Question: What about the “Weight Decreased, percent of patients” value ([3]; masitinib n = 27) of the same compound?
Answer: Its value is 11%.

Question: And the “effect on MSQLI subscales (SF-36, MFIS, PES, PDQ, MHI, MSSS)” value ([3]; over the course of treatment)?
Answer: Its value is “improved”.

Question: What about the “mean change in EDSS” value ([3]; overall, over 18 months) of the same compound?
Answer: The value was under 0.5.

Question: And the “MSFC mean percentage change” value ([3]; rfSPMS (masitinib n = 15), M3, LOCF)?
Answer: Its value is “+60%”.

Question: What about the “MSFC mean percentage change” value ([3]; rfSPMS (masitinib n = 15), M3, LOCF, listed as Masitinib) of the same compound?
Answer: Its value is 60 ± 152%.

Question: What about the “MSFC mean percentage change” value ([3]; rfSPMS (masitinib n = 15), M6, LOCF) of the same compound?
Answer: The value was 129 ± 223%.

Question: And the “MSFC mean percentage change” value ([3]; rfSPMS (masitinib n = 15), M9, LOCF)?
Answer: Its value is 78 ± 146%.

Question: What about the “MSFC mean percentage change” value ([3]; rfSPMS (masitinib n = 15), M12, LOCF) of the same compound?
Answer: Its value is 84 ± 130%.

Question: What about the “MSFC mean percentage change” value ([3]; rfSPMS (masitinib n = 15), M18, LOCF) of the same compound?
Answer: The value was “+73%”.

Question: And the “MSFC mean percentage change” value ([3]; rfSPMS (masitinib n = 15), M18, LOCF, listed as Masitinib)?
Answer: Its value is 73 ± 131%.

Question: And the EDSS score course ([3]; rfSPMS population)?
Answer: Its EDSS score course is “remained stable”.

Question: And the “brain volume (MS-related imaging)” value ([3]; throughout the study, masitinib group)?
Answer: Its value is “two patients experienced a brain volume increase”.

Question: And the “p value, mean clinical score, vehicle versus masitinib 12.5 mg/kg” value (mouse EAE model of MS; 12.5 mg/kg 2 times per day intraperitoneal)?
Answer: Its value is “p < 0.001”.

Question: What about the “p value, mean clinical score, vehicle versus masitinib 25 mg/kg” value (mouse EAE model of MS; 25 mg/kg 2 times per day intraperitoneal) of the same compound?
Answer: The value was “p < 0.001”.

Question: And the “p value, mean clinical score, masitinib 25 mg/kg versus masitinib 12.5 mg/kg” value (mouse EAE model of MS; 2 times per day intraperitoneal)?
Answer: Its value is “p < 0.001”.

Question: And the “mean clinical score relative to vehicle” value (mouse EAE model of MS; both doses (25 and 12.5 mg/kg 2 times per day i.p.))?
Answer: Its value is “significant differences in mean clinical score; also recorded: significant reduction in disease”.
